Measured values from patent EP0121635A1, “3',5',-Diarabinosides, their preparation and their therapeutical application” (SYNTHELABO, priority 1982, dated 1984).

Tests used:
[1] = tested on: tumeur ascitique d'Ehrlich; assay: Development of Ehrlich ascites tumour in mice (survival); type: in vivo, Souris; conditions: for Nombre d'animaux sans tumeur au 28ème jour: day 28, controls 0/12 and 0/5; for Nombre d'animaux sans tumeur au 28ème jour / % d'augmentation de survie (pour les animaux décédés): same regimen; for Durée de survie des souris: souris Swiss, 2 x 10^6 malignant cells i.p., 4 days; for % d'augmentation de survie (pour les animaux décédés): versus controls; for % d'augmentation: increase of survival versus controls
Procedure: Les composés de l'invention ont été soumis à des essais pharmacologiques montrant leur intérêt dans le domaine antitumoral. L'action des composés sur le développement de la tumeur ascitique d'Ehrlich chez la Souris a été observée.
Les essais se font sur des lots de 5 ou 6 souris Swiss de 12 à 15 g. Chaque animal reçoit 2 x 10^6 cellules malignes par voie péritonéale. Le traitement débute 16 h après l'inoculation et consiste en 2 injections par jour de 0,75 ml d'une solution de dinucléotide à 2 mg/ml dans le péritoine c'est-à-dire 3 mg par animal et par jour ou 200 mg/kg. La durée du traitement est de 4 jours.
Les dinucléotides,composés de l'invention, ont été testés de la manière indiquée.

[2] = tested on: virus Herpès; assay: Herpes virus yield in treated cell cultures (TCID50 titre); type: cell-based; conditions: untreated control harvest titre 10^5,625; concentration not given
Text: L'activité des trois composés de l'invention Ara A-p-Ara A, Ara A-p-Ara C et Ara C-p-Ara A a également été démontrée sur le virus Herpès.
La récolte virale témoin (cellules non traitées) a un titre TCI D50 (tissue culture infecting dosis) de 10^5,625.
Les cultures traitées par les composés de l'invention ont les titres suivants • Ara A-p-Ara A TCID50 = 10^3,16 • ^Ara A^-p-Ara C TCID50 ^< 102 • Ara C-p-Ara A TCID50 ≤ 10^2,5

[3] = Tableau 1, dinucleotide 200 mg/kg per day i.p. in 2 injections, start 16 h after inoculation, controls 16,54 j (Ara A, Ara C) and 18 j (Ara A-p-Ara C)
[4] = Tableau 2, dinucleotide 200 mg/kg per day i.p., controls 14,67 j

Structure (SMILES) | Nombre d'animaux sans tumeur au 28ème jour ([1]; Tableau 1) | Durée de survie des souris [1, 3] | % d'augmentation de survie (pour les animaux décédés) ([1]; Tableau 1) | % d'augmentation ([1]; Tableau 2) | Durée de survie des souris [1, 4] | TCID50 (titre of viral harvest of treated cultures) [2]
Nc1ncnc2c1ncn2[C@@H]1O[C@H](CO)[C@@H](O)[C@@H]1O [Ara A, 9-β-D-arabinofuranosyl-adénine] | 0 | 24,5 j | 48,5% | 39,75% | 20,5 j | 
Nc1ncnc2c1ncn2[C@@H]1O[C@H](COP(=O)(O)O[C@H]2[C@H](O)[C@H](n3cnc4c(N)ncnc43)O[C@@H]2CO)[C@@H](O)[C@@H]1O [Ara A-p-Ara A] |  |  |  | 44,3% | 21,17 j | 
Nc1ccn([C@@H]2O[C@H](COP(=O)(O)O[C@H]3[C@H](O)[C@H](n4cnc5c(N)ncnc54)O[C@@H]3CO)[C@@H](O)[C@@H]2O)c(=O)n1 [Ara A-p-Ara C] | 4/5 | > 36 J | > 100% |  |  | < 102
Nc1ccn([C@@H]2O[C@H](CO)[C@@H](O)[C@@H]2O)c(=O)n1 [Ara C, 1-β-D-arabinofuranosyl-cytosine] | 0 | 32 J | 94,4% |  |  | 
